# Data taken from PMC7026418, “The kinase polypharmacology landscape of clinical PARP inhibitors” (Scientific Reports, 2020).
# Where two headings read alike, the source gives them in different places.
# What was measured:
# Test in all cases: biochemical
# Design in all cases: DiscoveRx KINOMEscan active site-directed competition binding; percent of control kinase bound to immobilised ligand
# [1] = biological target: T1, ABL1(F317I)-phosphorylated (Homo sapiens, UniProt P00519, F317I)
# T1 construct: phosphorylated
# ALK = ALK (Homo sapiens, UniProt Q9UM73)
# AURKC = biological target: T2, AURKC (Homo sapiens, UniProt Q9UQB9)
# T2 sequence (Q9UQB9 1-309): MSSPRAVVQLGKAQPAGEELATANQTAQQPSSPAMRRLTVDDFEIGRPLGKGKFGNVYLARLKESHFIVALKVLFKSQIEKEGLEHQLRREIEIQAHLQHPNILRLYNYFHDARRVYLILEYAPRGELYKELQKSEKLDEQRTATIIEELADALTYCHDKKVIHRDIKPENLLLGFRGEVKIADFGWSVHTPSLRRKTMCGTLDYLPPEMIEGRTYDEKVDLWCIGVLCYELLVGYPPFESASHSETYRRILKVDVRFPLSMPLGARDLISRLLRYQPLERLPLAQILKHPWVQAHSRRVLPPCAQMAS
# CAMK2B = CAMK2B (Homo sapiens, UniProt Q13554)
# CDC2L5 = biological target: T3, CDC2L5 (Homo sapiens, UniProt Q14004)
# T3 construct: gene CDK13
# CSNK1E = CSNK1E (Homo sapiens, UniProt P49674)
# EGFR(L858R) = EGFR(L858R) (Homo sapiens, UniProt P00533, L858R)
# ERN1 = ERN1 (Homo sapiens, UniProt O75460)
# MARK2 = MARK2 (Homo sapiens, UniProt Q7KZI7)
# MST2 = biological target: T4, MST2 (Homo sapiens, UniProt Q13188)
# T4 construct: gene STK3
# T4 sequence (Q13188 1-491): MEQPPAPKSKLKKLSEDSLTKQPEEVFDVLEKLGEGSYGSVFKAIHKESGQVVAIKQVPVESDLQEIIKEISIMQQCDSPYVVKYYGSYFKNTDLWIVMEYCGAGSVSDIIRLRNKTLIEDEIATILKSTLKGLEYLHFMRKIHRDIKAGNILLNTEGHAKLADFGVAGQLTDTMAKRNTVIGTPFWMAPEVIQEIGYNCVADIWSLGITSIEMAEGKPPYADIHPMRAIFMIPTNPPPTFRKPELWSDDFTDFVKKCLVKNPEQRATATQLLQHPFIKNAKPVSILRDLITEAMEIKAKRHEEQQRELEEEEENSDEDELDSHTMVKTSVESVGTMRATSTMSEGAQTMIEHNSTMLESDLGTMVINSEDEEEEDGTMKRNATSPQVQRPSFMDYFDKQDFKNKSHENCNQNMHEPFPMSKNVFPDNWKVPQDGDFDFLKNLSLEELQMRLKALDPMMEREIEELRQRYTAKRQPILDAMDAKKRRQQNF
# SGK = biological target: T5, SGK (Homo sapiens, UniProt O00141)
# T5 construct: gene SGK1
# T5 sequence (O00141 1-431): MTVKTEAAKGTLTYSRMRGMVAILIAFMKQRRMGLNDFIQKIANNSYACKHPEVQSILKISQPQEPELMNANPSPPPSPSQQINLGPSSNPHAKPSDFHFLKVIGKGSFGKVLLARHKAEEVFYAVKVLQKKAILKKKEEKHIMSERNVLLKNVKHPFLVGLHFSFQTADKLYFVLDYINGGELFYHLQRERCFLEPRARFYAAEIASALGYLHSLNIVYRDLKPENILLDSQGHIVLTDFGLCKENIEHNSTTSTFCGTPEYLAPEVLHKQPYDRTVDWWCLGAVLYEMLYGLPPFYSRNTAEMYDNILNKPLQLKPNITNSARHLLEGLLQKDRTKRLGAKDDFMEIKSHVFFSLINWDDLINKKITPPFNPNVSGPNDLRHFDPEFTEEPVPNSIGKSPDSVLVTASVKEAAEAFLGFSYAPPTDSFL
# [2] = read-out: Talazoparib (BMN 673) / %Ctrl @ 10000nM
# [3] = read-out: Olaparib / %Ctrl @ 10000nM
# [4] = read-out: Niraparib (MK-4827) / %Ctrl @ 10000nM
# [5] = read-out: Rucaparib / %Ctrl @ 10000nM, binding competition, % of control
# EGFR(L858R), sequence (P00533 whole entry L858R): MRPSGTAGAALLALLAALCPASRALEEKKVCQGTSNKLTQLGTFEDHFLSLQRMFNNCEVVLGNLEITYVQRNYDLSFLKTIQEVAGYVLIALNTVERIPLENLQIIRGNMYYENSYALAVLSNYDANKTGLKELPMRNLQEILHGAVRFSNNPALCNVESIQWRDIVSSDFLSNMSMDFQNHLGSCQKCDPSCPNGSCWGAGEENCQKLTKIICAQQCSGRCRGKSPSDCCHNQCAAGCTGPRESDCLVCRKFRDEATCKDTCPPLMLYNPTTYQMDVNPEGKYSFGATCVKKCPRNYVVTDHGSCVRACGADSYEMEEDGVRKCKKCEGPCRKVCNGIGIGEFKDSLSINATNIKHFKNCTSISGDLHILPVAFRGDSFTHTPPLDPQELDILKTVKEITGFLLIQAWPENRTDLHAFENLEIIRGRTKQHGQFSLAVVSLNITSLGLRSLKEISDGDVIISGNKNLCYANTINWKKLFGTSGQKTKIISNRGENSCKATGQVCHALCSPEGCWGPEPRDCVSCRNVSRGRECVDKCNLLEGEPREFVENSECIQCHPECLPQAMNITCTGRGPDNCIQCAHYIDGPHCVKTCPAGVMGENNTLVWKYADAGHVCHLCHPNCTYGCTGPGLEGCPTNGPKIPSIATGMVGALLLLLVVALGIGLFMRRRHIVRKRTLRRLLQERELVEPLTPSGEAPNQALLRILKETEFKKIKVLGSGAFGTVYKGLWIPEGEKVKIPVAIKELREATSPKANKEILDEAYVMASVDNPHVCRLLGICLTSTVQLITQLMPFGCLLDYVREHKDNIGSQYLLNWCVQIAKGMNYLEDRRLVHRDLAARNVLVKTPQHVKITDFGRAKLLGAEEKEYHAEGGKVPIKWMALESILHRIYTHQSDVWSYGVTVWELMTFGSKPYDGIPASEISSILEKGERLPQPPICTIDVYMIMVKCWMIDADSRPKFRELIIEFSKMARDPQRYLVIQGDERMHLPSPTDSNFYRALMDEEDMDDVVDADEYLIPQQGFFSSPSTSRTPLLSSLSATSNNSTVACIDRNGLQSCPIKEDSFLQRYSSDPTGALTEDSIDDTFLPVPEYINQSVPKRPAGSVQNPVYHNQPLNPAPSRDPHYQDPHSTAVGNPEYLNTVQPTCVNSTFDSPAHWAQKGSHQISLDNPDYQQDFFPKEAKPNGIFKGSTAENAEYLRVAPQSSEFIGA
# CSNK1E, sequence (P49674 whole entry): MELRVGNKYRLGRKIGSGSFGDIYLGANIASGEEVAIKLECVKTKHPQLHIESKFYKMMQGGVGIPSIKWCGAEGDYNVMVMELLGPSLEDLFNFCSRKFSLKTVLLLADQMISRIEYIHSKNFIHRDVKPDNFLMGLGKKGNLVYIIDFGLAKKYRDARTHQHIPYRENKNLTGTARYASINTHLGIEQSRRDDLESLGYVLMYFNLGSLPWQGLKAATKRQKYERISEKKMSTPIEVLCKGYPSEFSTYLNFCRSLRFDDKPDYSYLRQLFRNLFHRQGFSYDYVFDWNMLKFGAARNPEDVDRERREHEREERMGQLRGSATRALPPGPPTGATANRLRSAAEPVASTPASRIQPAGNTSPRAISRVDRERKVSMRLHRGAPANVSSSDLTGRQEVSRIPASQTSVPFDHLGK
# ALK, sequence (Q9UM73 whole entry): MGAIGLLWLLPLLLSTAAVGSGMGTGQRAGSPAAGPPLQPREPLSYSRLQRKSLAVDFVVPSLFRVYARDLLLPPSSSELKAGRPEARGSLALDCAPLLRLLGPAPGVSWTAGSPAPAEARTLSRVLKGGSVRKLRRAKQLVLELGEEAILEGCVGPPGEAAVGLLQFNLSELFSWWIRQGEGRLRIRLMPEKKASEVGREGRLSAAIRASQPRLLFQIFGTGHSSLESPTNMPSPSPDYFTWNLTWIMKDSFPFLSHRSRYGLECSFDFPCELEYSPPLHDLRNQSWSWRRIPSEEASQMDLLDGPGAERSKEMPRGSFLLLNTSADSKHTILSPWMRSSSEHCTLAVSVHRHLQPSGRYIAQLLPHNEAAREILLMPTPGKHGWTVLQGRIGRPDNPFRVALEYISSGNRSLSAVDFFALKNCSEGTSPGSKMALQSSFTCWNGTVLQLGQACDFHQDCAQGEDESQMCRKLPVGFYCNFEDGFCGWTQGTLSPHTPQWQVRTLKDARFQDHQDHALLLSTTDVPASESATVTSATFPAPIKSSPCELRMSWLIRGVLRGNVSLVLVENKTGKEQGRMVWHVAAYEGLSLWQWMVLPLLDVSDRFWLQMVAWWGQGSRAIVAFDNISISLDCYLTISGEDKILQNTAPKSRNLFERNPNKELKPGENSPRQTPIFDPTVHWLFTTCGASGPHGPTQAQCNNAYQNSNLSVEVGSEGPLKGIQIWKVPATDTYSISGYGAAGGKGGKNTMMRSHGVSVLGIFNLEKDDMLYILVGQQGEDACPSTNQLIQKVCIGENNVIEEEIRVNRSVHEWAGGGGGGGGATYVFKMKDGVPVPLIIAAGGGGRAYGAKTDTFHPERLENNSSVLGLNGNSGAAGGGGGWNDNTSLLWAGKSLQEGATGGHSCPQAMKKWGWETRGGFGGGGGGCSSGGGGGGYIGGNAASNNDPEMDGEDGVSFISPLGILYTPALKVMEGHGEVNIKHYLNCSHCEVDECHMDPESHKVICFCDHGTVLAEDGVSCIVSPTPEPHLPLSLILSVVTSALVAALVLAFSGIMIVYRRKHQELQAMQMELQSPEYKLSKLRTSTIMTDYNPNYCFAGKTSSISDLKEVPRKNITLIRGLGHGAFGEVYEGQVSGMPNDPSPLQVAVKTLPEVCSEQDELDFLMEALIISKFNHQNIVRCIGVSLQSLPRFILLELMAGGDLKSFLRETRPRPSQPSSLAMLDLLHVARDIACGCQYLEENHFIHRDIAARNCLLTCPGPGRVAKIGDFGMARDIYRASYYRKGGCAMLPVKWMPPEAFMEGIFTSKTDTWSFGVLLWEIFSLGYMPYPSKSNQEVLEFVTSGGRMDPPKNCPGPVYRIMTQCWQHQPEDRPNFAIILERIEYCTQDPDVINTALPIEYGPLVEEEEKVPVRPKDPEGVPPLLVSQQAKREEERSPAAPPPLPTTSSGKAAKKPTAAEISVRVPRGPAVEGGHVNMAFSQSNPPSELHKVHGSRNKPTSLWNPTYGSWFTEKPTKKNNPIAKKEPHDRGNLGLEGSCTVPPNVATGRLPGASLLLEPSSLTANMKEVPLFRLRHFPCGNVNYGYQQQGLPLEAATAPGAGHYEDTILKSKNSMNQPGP
# ERN1, sequence (O75460 whole entry): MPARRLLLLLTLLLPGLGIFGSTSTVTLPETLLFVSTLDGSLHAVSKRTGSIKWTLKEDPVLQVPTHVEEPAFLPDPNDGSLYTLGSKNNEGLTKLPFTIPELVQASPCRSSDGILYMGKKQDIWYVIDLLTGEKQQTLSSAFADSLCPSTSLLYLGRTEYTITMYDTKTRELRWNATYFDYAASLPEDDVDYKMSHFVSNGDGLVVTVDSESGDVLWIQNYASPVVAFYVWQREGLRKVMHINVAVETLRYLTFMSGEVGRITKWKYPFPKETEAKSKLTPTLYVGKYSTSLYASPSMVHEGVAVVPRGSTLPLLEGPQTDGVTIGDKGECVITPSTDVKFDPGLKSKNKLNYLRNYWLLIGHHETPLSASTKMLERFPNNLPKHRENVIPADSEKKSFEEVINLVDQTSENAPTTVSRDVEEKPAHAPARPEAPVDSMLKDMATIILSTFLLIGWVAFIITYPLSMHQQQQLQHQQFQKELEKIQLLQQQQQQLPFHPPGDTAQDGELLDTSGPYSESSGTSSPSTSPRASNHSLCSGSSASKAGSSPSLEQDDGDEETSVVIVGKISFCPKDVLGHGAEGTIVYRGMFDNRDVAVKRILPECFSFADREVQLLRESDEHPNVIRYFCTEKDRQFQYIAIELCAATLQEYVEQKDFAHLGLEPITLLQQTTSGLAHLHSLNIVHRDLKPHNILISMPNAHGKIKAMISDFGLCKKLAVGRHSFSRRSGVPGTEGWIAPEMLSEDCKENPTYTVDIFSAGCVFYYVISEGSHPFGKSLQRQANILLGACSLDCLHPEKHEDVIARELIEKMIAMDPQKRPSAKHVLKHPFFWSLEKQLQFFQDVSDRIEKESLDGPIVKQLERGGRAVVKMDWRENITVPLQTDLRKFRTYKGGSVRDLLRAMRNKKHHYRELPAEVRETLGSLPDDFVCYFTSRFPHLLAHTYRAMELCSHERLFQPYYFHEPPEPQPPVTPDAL
# CAMK2B, sequence (Q13554 whole entry): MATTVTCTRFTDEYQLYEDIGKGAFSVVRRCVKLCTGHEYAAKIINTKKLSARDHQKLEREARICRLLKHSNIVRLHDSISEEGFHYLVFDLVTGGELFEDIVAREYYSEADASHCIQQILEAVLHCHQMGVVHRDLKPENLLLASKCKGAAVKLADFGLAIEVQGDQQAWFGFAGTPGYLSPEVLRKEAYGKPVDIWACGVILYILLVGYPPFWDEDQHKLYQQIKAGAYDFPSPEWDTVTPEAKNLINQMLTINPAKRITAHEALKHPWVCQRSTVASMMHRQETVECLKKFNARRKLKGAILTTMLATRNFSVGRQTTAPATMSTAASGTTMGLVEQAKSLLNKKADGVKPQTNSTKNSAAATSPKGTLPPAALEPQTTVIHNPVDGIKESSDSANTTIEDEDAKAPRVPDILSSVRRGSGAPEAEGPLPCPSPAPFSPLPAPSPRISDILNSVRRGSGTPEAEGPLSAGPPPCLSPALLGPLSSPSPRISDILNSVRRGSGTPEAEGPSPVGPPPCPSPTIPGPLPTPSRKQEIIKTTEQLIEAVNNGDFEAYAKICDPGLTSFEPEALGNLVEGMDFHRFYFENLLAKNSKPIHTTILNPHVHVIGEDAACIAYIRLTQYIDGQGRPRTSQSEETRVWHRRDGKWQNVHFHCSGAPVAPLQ
smiles,measurement,setting,value
Cn1ncnc1[C@H]1c2n[nH]c(=O)c3cc(F)cc(c23)N[C@@H]1c1ccc(F)cc1 [Talazoparib],percent of control binding at 10 µM,[1]; [2],99%
same,percent of control binding at 10 µM,ALK; [2],100%
same,percent of control binding at 10 µM,AURKC; [2],100%
same,percent of control binding at 10 µM,CAMK2B; [2],92%
same,percent of control binding at 10 µM,CDC2L5; [2],100%
same,percent of control binding at 10 µM,CSNK1E; [2],69%
same,percent of control binding at 10 µM,EGFR(L858R); [2],97%
same,percent of control binding at 10 µM,ERN1; [2],91%
same,percent of control binding at 10 µM,MARK2; [2],100%
same,percent of control binding at 10 µM,MST2; [2],100%
same,percent of control binding at 10 µM,SGK; [2],92%
O=C(c1cc(Cc2n[nH]c(=O)c3ccccc23)ccc1F)N1CCN(C(=O)C2CC2)CC1 [Olaparib],percent of control binding at 10 µM,[1]; [3],86%
same,percent of control binding at 10 µM,ALK; [3],86%
same,percent of control binding at 10 µM,AURKC; [3],97%
same,percent of control binding at 10 µM,CAMK2B; [3],96%
same,percent of control binding at 10 µM,CDC2L5; [3],99%
same,percent of control binding at 10 µM,CSNK1E; [3],90%
same,percent of control binding at 10 µM,EGFR(L858R); [3],92%
same,percent of control binding at 10 µM,ERN1; [3],88%
same,percent of control binding at 10 µM,MARK2; [3],100%
same,percent of control binding at 10 µM,MST2; [3],96%
same,percent of control binding at 10 µM,SGK; [3],97%
NC(=O)c1cccc2cn(-c3ccc([C@@H]4CCCNC4)cc3)nc12 [Niraparib],percent of control binding at 10 µM,[1]; [4],89%
same,percent of control binding at 10 µM,ALK; [4],98%
same,percent of control binding at 10 µM,AURKC; [4],56%
same,percent of control binding at 10 µM,CAMK2B; [4],90%
same,percent of control binding at 10 µM,CDC2L5; [4],100%
same,percent of control binding at 10 µM,CSNK1E; [4],57%
same,percent of control binding at 10 µM,EGFR(L858R); [4],70%
same,percent of control binding at 10 µM,ERN1; [4],100%
same,percent of control binding at 10 µM,MARK2; [4],75%
same,percent of control binding at 10 µM,MST2; [4],100%
same,percent of control binding at 10 µM,SGK; [4],89%
CNCc1ccc(-c2[nH]c3cc(F)cc4c3c2CCNC4=O)cc1 [Rucaparib],percent of control binding at 10 µM,[1]; [5],92%
same,percent of control binding at 10 µM,ALK; [5],45%
same,percent of control binding at 10 µM,AURKC; [5],78%
same,percent of control binding at 10 µM,CAMK2B; [5],86%
same,percent of control binding at 10 µM,CDC2L5; [5],98%
same,percent of control binding at 10 µM,CSNK1E; [5],76%
same,percent of control binding at 10 µM,EGFR(L858R); [5],96%
same,percent of control binding at 10 µM,ERN1; [5],75%
same,percent of control binding at 10 µM,MARK2; [5],92%
same,percent of control binding at 10 µM,MST2; [5],76%
same,percent of control binding at 10 µM,SGK; [5],61%
